Values quoted from earlier work as cited in patent US5258185A (priority 1989, dated 1993).

Key:
[1] = e.g. incorporation in melts of high molecular polyethylene glycols
[2] = not given; remark: listed apart in the source
[3] = extremely fine crystallizates, surface size 3 to 10 m^2 (DE-OS 23 48 334)

## COc1ccc(Cl)cc1C(=O)NCCc1ccc(S(=O)(=O)NC(=O)NC2CCCCC2)cc1 [Glibenclamide, N-4-(5-chloro-[2-methoxy-benzamido)ethyl]phenylisulfonyl-N'-cyclohexyl urea]
[1]
  effect of processing at elevated temperatures on stability: detrimental to stability
Acidic range
  water solubility depending on pH: virtually water-insoluble
alcohol
  solubility in alcohol: only moderately soluble
chloroform
  solubility in chloroform: only moderately soluble
ether
  solubility in ether: virtually insoluble
[3]
  solubility and dissolution rate with increase in surface: increase in solubility and dissolution rate
water
  solubility in water: virtually insoluble
[2]; [3]
  bioavailability with increase in surface: improving the bioavailability
[2]; micronized, mean particle size ±5 μm, above all in the presence of tensides
  drug release and bioavailability of micronized glibenclamide: improved drug release and bioavailability
